Laboratory results as given in US6783769B1, “Transdermal therapeutic system TTS containing tolterodine” (Schwarz Pharma AG, priority 1999, dated 2004).
Read-outs that look alike come from different tables or passages of the source.

Key:
[1] = oral application, cited from earlier work
[2] = Rate of dermal penetration, deuterated versus non-deuterated tolterodine (general statement); assay type: in vitro ADME; details: compared with non-deuterated tolterodine

| Compound | absolute bioavailability ([1]; rapid metabolisers) [%] | absolute bioavailability ([1]; slow metabolisers) [%] | rate of dermal penetration [2] |
| --- | --- | --- | --- |
| Cc1ccc(O)c(C(CCN(C(C)C)C(C)C)c2ccccc2)c1 (stereo not drawn) [tolterodine, N,N-diisopropyl-3-(2-hydroxy-5-methylphenyl)-3-phenylpropylamine] | 17 | 65 |  |
| [2H]C([2H])([2H])c1ccc(O)c(C(CCN(C(C)C)C(C)C)c2ccccc2)c1 (stereo not drawn) [deuterated tolterodine, 2-(3-diisopropylamino-1-phenylpropyl)-4-[^2H3]methyl-phenol] |  |  | considerably increased |
